From US8349801B2, “Peptide ligands for G-protein coupled receptors” (priority 2006, dated 2013) come the findings set out here.

No end group written: not given here.

The test system of the assay is aortic rings from Wistar rat. Description: Vasorelaxant activity in phenylephrine pre-contracted aortic rings. An excerpt:
Male Wistar rats of the age of 13-14 weeks (body weight: 250 to 300 g) were used. The rats were exposed to light-dark cycle of 12 hs (day—06:00 to 18:00; night—18:00 to 06:00) controlled by timer. Rats were killed by decapitation and exsanguination and tissues were rapidly removed.
Rings (3-4 mm) from the descending thoracic aorta, free of adipose and connective tissue, were set up in gassed (95% O2 and 5% CO2) Krebs-Henseleit solution (mmol/L): NaCl 110.8, KCl 5.9, NaHCO3 25.0, MgSO4 1.07, CaCl2 2.49, NaH2PO4 2.33 and glucose 11.51, at 37° C., under a tension of 1.0 g, for 1 hour to equilibrate. The presence of functional endothelium was assessed by the ability of Acetylcholine (1 μM) to induce more than 70% relaxation of vessels pre-contracted with phenylephrine (0.3 μM) (Lemos et al., 2005). When necessary, the endothelium was removed by rubbing the intimal surface with a wooden stick. Mechanical activity, recorded isometrically by a force transducer (Panlab, model number TR1210, Spain), was fed to an amplifier-recorder (Powerlab 4/20, ADInstruments, Inc.) and to a personal computer equipped with an analogue-to-digital converter board (AD16JR; World Precision Instruments, Inc.), using CVMS data acquisition/recording software (World Precision Instruments, Inc.).
The vasorelaxant activity of peptides —P61_S (SEQ ID NO:10), P61 (SEQ ID NO.9)-dimer (P61_D), P33_V (SEQ ID NO:7) and P33 (SEQ ID NO:6)-dimer (P33_D) were measured in vessels (N=5-8) with or without functional endothelium pre-contracted to the same tension level (approximately 1.5 g of tension) induced by submaximal concentrations of phenylephrine (0.01 μM). For comparison, the effect of Ang-(1-7) was also tested (N=4)
P61_S (SEQ ID NO:10), P61 (SEQ ID NO9)-dimer (P61_D), P33_V (SEQ ID NO:7) or P33 (SEQ ID NO:6)-dimer (P33_D) were added in increasing cumulative concentrations (0.0001 to 1 μM) once the response to phenylephrine had stabilized (FIG. 28). In order to verify the participation of endothelium-derived products in the relaxant effect of peptides, experiments were performed in the presence of 100 μM N′-Nitro-L-Arginine Methyl Ester-[L-NAME]—a nonselective inhibitor of nitric oxide synthase. In experiments performed in the presence of L-NAME, vessels were pre-contracted with 0.03 μM of phenylephrine, to achieve the same tension level as the others. L-NAME was added to the bath 20 min prior to the addition of phenylephrine.
Results are presented as mean±SEM. Two-way analysis of variance (ANOVA) with Bonferroni multiple comparison post-test was used to compare concentration response curves obtained in aortic rings. The vasodilator effect of P61_S (SEQ ID NO:10), P61 (SEQ ID N09)-dimer (P61_D), P33_V (SEQ ID NO:7), P33 (SEQ ID NO:6)-dimer (P33_D) and Ang-(1-7) were expressed as percentage decrease in maximal contraction induced by phenylephrine. All statistical analyses were considered significant when p<0.05.

Regarding “FLGYCIYLNRKRRGDPAFKRRLRD (also: dimer via cysteine; listed as Homo sapiens) [Peptide P61_dimer]”, for the setting “100 μM L-NAME, NO synthase inhibitor”, the “vasodilator effect in the presence of L-NAME” value was “markedly inhibited”. The “vasodilator effect in the absence of functional endothelium” value (endothelium-denuded vessels) is “abolished”. Further, the “Maximal values for the relaxant effect (Emax)” value (vessels with endothelium, 0.0001 to 1 μM cumulative, mean±SEM) is listed as 20.45±5.11%.
